Measurements published in article PMC9823934, “New Class of Benzodiazepinone Derivatives as Pro-Death Agents Targeting BIR Domains in Cancer Cells” (Molecules, 2023).
Read-outs that look alike come from different tables or passages of the source.

Key:
MDA-MB-231 cells = experiment: Cell viability assay (PrestoBlue) in MDA-MB-231, with or without TNF; assay type: cell-based, human; conditions: 48 h treatment
Procedure: MDA-MB-231 cells (human breast adenocarcinoma cell line) were grown in standard conditions (37 °C, 5% CO2) in RPMI medium supplemented with 10% serum, 1 mg·mL^−1 penicillin, 100 μg·mL^−1 streptomycin and 2 mM l-glutamine. Cell viability was evaluated by using PrestoBlue^TM Cell Viability Reagent (Thermo Fisher Scientific, Rodano, Italy). Resazurin, the active nontoxic and non-fluorescent ingredient, is continuously converted in resorufin, a red fluorescent compound, in viable cells. Cells were seeded on black-wall, clear bottom 96-well microplates at a density of 50,000 cells/well. After 24 h, cells were treated with the FC2 derivatives from 1.5 μM to 100 μM (vehicle, DMSO) in the absence or presence of TNF at the concentration of 50 ng/mL. After 48 h, the fluorescence was determined using a fluorescence plate reader (Tristar2 S, Berthold Technologies, Bad Wildbad, Germany) equipped with 560 nm excitation and 585 nm emission filters. At least five replicates were performed for each condition. The EC50, was calculated plotting the percentage of cell survival against the compound concentration (A) and fitting the data with: % survival=Tmax−TminA/A+EC50+Tmin where Tmax and Tmin are the maximum and minimum effect induced by the compounds. Analysis was performed with IgorPro 8.04 software (Lake Oswego, OR, USA).

XIAP-BIR1 = XIAP-BIR1 (Homo sapiens, UniProt P98170); experiment: Trp fluorescence binding assay on XIAP-BIR1
XIAP-BIR1, sequence (P98170 10-99 limits assumed): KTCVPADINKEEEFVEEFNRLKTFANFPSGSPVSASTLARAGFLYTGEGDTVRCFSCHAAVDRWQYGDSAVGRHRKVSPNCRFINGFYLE
Procedure: (§1) The binding of FC2 derivatives to the BIR1 domains was assessed by in vitro fluorimetric assays.
(§2) The fluorescence intensity emitted by XIAP-BIR1 Trp73 or cIAP2-BIR1 Trp76 was measured by varying the concentration of the different ligands. The tests were performed with a spectral fluorimeter (Varian Cary Eclipse Fluorescence Spectrophotometer, Agilent Technologies), recording the fluorescence emission spectra between 300 and 400 nm (excitation 280 nm). XIAP-/ cIAP2-BIR1 protein samples were concentrated at 5 μM.
(§3) All the analyses were performed with GraFit version 5 (Erithacus Software Ltd., Horley, UK).

cIAP2-BIR1 = cIAP2-BIR1 (Homo sapiens, UniProt Q13489); experiment: Trp fluorescence binding assay on cIAP2-BIR1
cIAP2-BIR1, sequence (Q13489 26-99 limits assumed): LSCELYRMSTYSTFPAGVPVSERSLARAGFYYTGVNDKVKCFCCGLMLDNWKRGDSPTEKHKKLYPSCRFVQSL
Procedure: as §1, §2, §3

[1] = Homo sapiens, MDA-MB-231, 48 h, MDA-MB-231, in combination with 50 ng/mL TNF, read-out: EC50 (+TNF)
[2] = Homo sapiens, MDA-MB-231, 48 h, MDA-MB-231, single agent, read-out: EC50
[3] = read-out: Kd (XIAP-BIR1), Trp fluorescence titration, 23 °C, pH 8.0
[4] = read-out: Kd (cIAP2-BIR1), Trp fluorescence titration, 23 °C, pH 8.0
[5] = Homo sapiens, MDA-MB-231, in combination with 50 ng/mL TNF, read-out: EC50 (+TNF)
[6] = Homo sapiens, MDA-MB-231, single agent, read-out: EC50

SMILES | EC50 (MDA-MB-231 cells; [1]) [µM] | EC50 (MDA-MB-231 cells; [2]) [µM] | Kd (XIAP-BIR1) [µM] | Kd (cIAP2-BIR1) [µM] | EC50 (MDA-MB-231 cells; MDA-MB-231, single agent, read-out: EC50) [µM] | Kd (XIAP-BIR1; [3]) [µM] | Kd (cIAP2-BIR1; [4]) [µM] | EC50 (MDA-MB-231 cells; [5]) [µM] | EC50 (MDA-MB-231 cells; [6]) [µM] | EC50 (MDA-MB-231 cells; MDA-MB-231, single agent)
CC1(C)CC(=O)C2=C(C1)Nc1cc(C(=O)c3ccccc3)ccc1NC2c1c[nH]c2ccccc12 (centres unmarked) [4a, 7-benzoyl-11-(1H-indol-3-yl)-3,3-dimethyl-2,3,4,5,10,11-hexahydro-1H-dibenzo[b,e][1,4]diazepin-1-one] | 16.9 ± 7.14 | 42.8 ± 10.1 | 6.8 ± 1.3 | 1.3 ± 0.7 |  |  |  |  |  | 
O=C1CCCC2=C1C(c1cccs1)Nc1ccc(C(=O)c3ccccc3)cc1N2 (centres unmarked) [4b, 7-benzoyl-11-(thiophen-2-yl)-2,3,4,5,10,11-hexahydro-1H-dibenzo[b,e][1,4]diazepin-1-one] | 9.2 ± 5.75 | 21.9 ± 8.17 | 30 ± 7.47 | 46.3 ± 24.8 |  |  |  |  |  | 
Cc1ccc(C2Nc3ccc(C(=O)c4ccccc4)cc3NC3=C2C(=O)CCC3)o1 (centres unmarked) [4c, 7-benzoyl-11-(5-methylfuran-2-yl)-2,3,4,5,10,11-hexahydro-1H-dibenzo[b,e][1,4]diazepin-1-one] | 45.3 ± 3.75 | 65 | > 50 | > 50 | 65.1 ± 2.43 |  |  |  |  | 
O=C1CCCC2=C1C(c1ccccc1)Nc1ccc(C(=O)c3ccccc3)cc1N2 (centres unmarked) [4d, 7-benzoyl-11-phenyl-2,3,4,5,10,11-hexahydro-1H-dibenzo[b,e][1,4]diazepin-1-one] | 69.2 ± 8.1 | 19.6 ± 4.23 | 4.4 ± 2.2 | 21.9 ± 6.2 |  |  |  |  |  | 
Cc1ccc(C2Nc3ccc(C(=O)c4ccccc4)cc3NC3=C2C(=O)CCC3)cc1 (centres unmarked) [4e, 7-benzoyl-11-(p-tolyl)-2,3,4,5,10,11-hexahydro-1H-dibenzo[b,e][1,4]diazepin-1-one] | 47.9 ± 9.7 | 38.9 ± 7.55 | > 50 | 27.6 ± 7.3 |  |  |  |  |  | 
COc1ccc(C2Nc3ccc(C(=O)c4ccccc4)cc3NC3=C2C(=O)CCC3)cc1 (centres unmarked) [4g] | 36.3 ± 10.4 | 67.2 ± 7.6 | 18 ± 5.4 |  |  |  |  |  |  | 
O=C1CCCC2=C1C(c1ccc(C(F)(F)F)cc1)Nc1ccc(C(=O)c3ccccc3)cc1N2 (centres unmarked) [4h] | 48.8 ± 5.72 | 22.3 ± 8.67 | 14.9 ± 3.8 | 43.4 ± 13.9 |  |  |  |  |  | 
O=C1CCCC2=C1C(c1ccc(Cl)cc1)Nc1ccc(C(=O)c3ccccc3)cc1N2 (centres unmarked) [4i] | 22.2 ± 6.67 | 25.9 ± 7.03 | > 50 | > 50 |  |  |  |  |  | 
O=C1CCCC2=C1C(c1ccc(O)cc1)Nc1ccc(C(=O)c3ccccc3)cc1N2 (centres unmarked) [4j] | 59.7 ± 14.8 | 48.2 ± 15.1 |  |  |  | 7.26 ± 0.98 | 27.6 ± 3.16 |  |  | 
COc1cccc(C2Nc3ccc(C(=O)c4ccccc4)cc3NC3=C2C(=O)CCC3)c1 (centres unmarked) [4k] | 13 ± 4.15 | 10.3 ± 4.63 |  |  |  | > 50 | > 50 |  |  | 
O=C1CCCC2=C1C(c1cccc(O)c1)Nc1ccc(C(=O)c3ccccc3)cc1N2 (centres unmarked) [4l] | 16.1 ± 3.7 | 18.6 ± 2.56 | 22 ± 1.18 | 38.6 ± 3.56 |  |  |  |  |  | 
O=C1CCCC2=C1C(c1cccc([N+](=O)[O-])c1)Nc1ccc(C(=O)c3ccccc3)cc1N2 (centres unmarked) [4m] |  |  |  | 20.5 ± 4 |  |  |  | 3.82 ± 1.41 | 5.54 ± 1.03 | 
Nc1cccc(C2Nc3ccc(C(=O)c4ccccc4)cc3NC3=C2C(=O)CCC3)c1 (centres unmarked) [4n] |  |  | 38.1 ± 1.68 | 26.5 ± 1.07 |  |  |  |  |  | loss of activity
COc1ccc(C2Nc3ccc(C(=O)c4ccccc4)cc3NC3=C2C(=O)CCC3)cc1OC (centres unmarked) [4o] | 15.4 ± 6.86 | 13.5 ± 4.67 | 7.5 ± 2.9 | 12 ± 2.4 |  |  |  |  |  | 
O=C1CCCC2=C1C(c1ccc(O)c(O)c1)Nc1ccc(C(=O)c3ccccc3)cc1N2 (centres unmarked) [4p] | 9.5 ± 4.73 | 6.92 ± 2.43 | 15.9 ± 5.2 | 26.9 ± 4.3 |  |  |  |  |  | 
O=C1CCCC2=C1C(c1ccc3c(c1)OC(F)(F)O3)Nc1ccc(C(=O)c3ccccc3)cc1N2 (centres unmarked) [4q] |  |  | 41.8 ± 11.7 | 16.4 ± 2.9 |  |  |  | 14 ± 2.4 | 14.7 ± 4.98 | 
COc1cc(C2Nc3ccc(C(=O)c4ccccc4)cc3NC3=C2C(=O)CCC3)ccc1O (centres unmarked) [4r] |  |  | 33.1 ± 1.4 | 46 ± 8.33 |  |  |  | 12.8 ± 1.9 | 7.49 ± 1.65 | 
COc1ccc(C2Nc3ccc(C(=O)c4ccccc4)cc3NC3=C2C(=O)CCC3)cc1O (centres unmarked) [4s] |  |  | > 50 | > 50 |  |  |  | 14.6 ± 1.74 | 15.2 ± 3.63 | 
COc1cccc(C2Nc3ccc(C(=O)c4ccccc4)cc3NC3=C2C(=O)CCC3)c1O (centres unmarked) [4t] |  |  | > 50 | > 50 |  |  |  |  |  | without activity
O=C1CCCC2=C1C(c1ccc(O)c([N+](=O)[O-])c1)Nc1ccc(C(=O)c3ccccc3)cc1N2 (centres unmarked) [4u] |  |  |  |  |  | 37.3 ± 4.45 | > 50 | 9.53 ± 3.61 | 17 ± 5.4 | 
COc1cc(C2Nc3ccc(C(=O)c4ccccc4)cc3NC3=C2C(=O)CCC3)cc([N+](=O)[O-])c1O (centres unmarked) [4v] |  |  | 46.4 ± 5.31 | 38 ± 2.78 |  |  |  | 26.8 ± 12.5 | 31.4 ± 11.4 | 
O=C1CCCC2=C1C(c1c[nH]c3ccccc13)Nc1ccc(C(=O)c3ccccc3)cc1N2 (centres unmarked) [FC2, 7-benzoyl-11-(1H-indol-3-yl)-2,3,4,5,10,11-hexahydro-1H-dibenzo[b,e][1,4]diazepin-1-one] |  |  |  |  |  |  |  | 9.08 ± 1.85 | 11.4 ± 2.08 | 
